Data reported in the NIST ThermoML archive (doi:10.1021/je060271a).

Conditions: 303.16 K, Liquid, Vibrating tube method

CCCC(=O)OCC(COC(=O)CCC)(COC(=O)CCC)COC(=O)CCC [pentaerythritol tetrabutyrate]
Conditions | mass density [kg/m3]
28457 kPa | 1059.5
28504 kPa | 1059.6
28542 kPa | 1059.7
28589 kPa | 1059.8
28636 kPa | 1059.7
28675 kPa | 1059.8
28723 kPa | 1059.9
28762 kPa | 1059.7
28808 kPa | 1059.8
28856 kPa | 1059.8
28896 kPa | 1060
28944 kPa | 1059.8
28991 kPa | 1060
29031 kPa | 1060
29080 kPa | 1060
29121 kPa | 1060
29170 kPa | 1060.1
29212 kPa | 1060
29261 kPa | 1060.1
29301 kPa | 1060
29349 kPa | 1060
29397 kPa | 1060.1
29435 kPa | 1060
29481 kPa | 1060.1
29515 kPa | 1060.2
29583 kPa | 1060.3
29644 kPa | 1060.2
29675 kPa | 1060.3
29772 kPa | 1060.4
29848 kPa | 1060.4
29885 kPa | 1060.5
29968 kPa | 1060.4
30045 kPa | 1060.6
30080 kPa | 1060.5
30163 kPa | 1060.5
30239 kPa | 1060.6
30274 kPa | 1060.8
30309 kPa | 1060.5
30339 kPa | 1060.8
30375 kPa | 1060.8
30405 kPa | 1060.6
30441 kPa | 1060.8
30478 kPa | 1060.7
30509 kPa | 1060.8
30539 kPa | 1060.8
30576 kPa | 1060.9
30606 kPa | 1060.9
30642 kPa | 1060.7
30679 kPa | 1060.9
30710 kPa | 1060.8
30746 kPa | 1060.9
30777 kPa | 1061.1
30814 kPa | 1061
30850 kPa | 1060.9
30882 kPa | 1061
30919 kPa | 1061
30951 kPa | 1061
30989 kPa | 1061.1
31020 kPa | 1061
31057 kPa | 1061.1
31094 kPa | 1061.3
31126 kPa | 1061.1
31164 kPa | 1061.1
31196 kPa | 1061.1
31233 kPa | 1061.1
31271 kPa | 1061.2
31303 kPa | 1061.3
31342 kPa | 1061.2
31375 kPa | 1061.3
31414 kPa | 1061.3
31446 kPa | 1061.3
31485 kPa | 1061.2
31517 kPa | 1061.2
31555 kPa | 1061.3
31595 kPa | 1061.4
31627 kPa | 1061.4
31667 kPa | 1061.4
31700 kPa | 1061.5
31738 kPa | 1061.4
31778 kPa | 1061.5
31811 kPa | 1061.5
31851 kPa | 1061.5
31883 kPa | 1061.5
31922 kPa | 1061.6
31960 kPa | 1061.6
31999 kPa | 1061.6
32038 kPa | 1061.6
32076 kPa | 1061.5
32115 kPa | 1061.7
32148 kPa | 1061.9
32187 kPa | 1061.8
32227 kPa | 1061.7
32266 kPa | 1061.9
32299 kPa | 1061.7
32339 kPa | 1061.8
32380 kPa | 1061.8
32419 kPa | 1061.8
32452 kPa | 1061.8
32491 kPa | 1062
32532 kPa | 1061.9
32572 kPa | 1061.8
32612 kPa | 1061.9
32652 kPa | 1062
32693 kPa | 1061.8
32727 kPa | 1062
32768 kPa | 1062
32809 kPa | 1062.1
32850 kPa | 1062
32891 kPa | 1062.2
33091 kPa | 1062.2
33133 kPa | 1062.2
33168 kPa | 1062.2
33210 kPa | 1062.2
33253 kPa | 1062.4
33296 kPa | 1062.3
33340 kPa | 1062.3
33377 kPa | 1062.2
33421 kPa | 1062.4
33456 kPa | 1062.4
33499 kPa | 1062.4
33542 kPa | 1062.4
33586 kPa | 1062.6
33622 kPa | 1062.5
33666 kPa | 1062.6
33710 kPa | 1062.5
33753 kPa | 1062.5
33797 kPa | 1062.6
33834 kPa | 1062.6
33881 kPa | 1062.7
33925 kPa | 1062.7
33963 kPa | 1062.8
34008 kPa | 1062.7
34052 kPa | 1062.7
34098 kPa | 1062.8
34136 kPa | 1062.8
34182 kPa | 1062.8
34228 kPa | 1062.7
34275 kPa | 1062.9
34322 kPa | 1062.9
34370 kPa | 1063
34411 kPa | 1063.1
34462 kPa | 1063
34514 kPa | 1063.1
34558 kPa | 1062.9
34613 kPa | 1063
34844 kPa | 1063.3
